This is an account of results in patent US10131664B2 (Celgene Quanticel Research, Inc., priority 2013, dated 2018).

Counter-ions that a name gives are not always drawn.

As a reminder, the IC50 is the concentration that inhibits the measured activity by half.

One assay relates to THP-1 (AML) cells. Briefly: LSD1 CD11b cellular assay (flow cytometry). As to conditions: Homo sapiens, 96 h; CD11b expression in THP-1 (AML) cells, flow cytometry, 4 days incubation; read-out: Cellular IC50. Type of assay: cell-based. Put shortly: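 THP-1 AML cells treated with serially diluted compound (0.2% DMSO final) for 4 days at 37 °C, 5% CO2. CD11b expression measured by flow cytometry with DAPI staining; IC50 derived from percent CD11b-positive cells versus inhibitor concentration.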

For another assay, the target named is full-length human LSD1 (Homo sapiens (Human), UniProt O60341). The assay can be described thus: In vitro enzyme inhibition assay LSD-1 (TR-FRET). It counts as biochemical. The note with it: TR-FRET, 0.1 nM LSD1, 50 nM H3K4me1-biotin peptide, 2 μM FAD, pH7.3; read-out: LSD1 IC50. The method, then: This assay determines the ability of a test compound to inhibit LSD1 demethylase activity.
The enzymatic assay of LSD1 activity is based on Time Resolved-Fluorescence Resonance Energy Transfer (TR-FRET) detection.
The ability of the compounds disclosed herein to inhibit LSD1 activity was quantified and the respective IC50 value was determined. Table 5 provides the IC50 values of various substituted heterocyclic compounds disclosed herein.
(In TR-FRET formats the signal depends on donor and acceptor labels being close together.)

With `CNc1nc(N2CCC(N)CC2)nc(-c2ccc(C#N)cc2)c1-c1ccc2nn(C)cc2c1` [Example 163, 4-[2-(4-aminopiperidin-1-yl)-5-(2-methyl-2H-indazol-5-yl)-6-(methylamino)-pyrimidin-4-yl]-benzonitrile], the IC50 in the assay with THP-1 (AML) cells and on full-length human LSD1 was less than 100 nM each time.
For `Cn1cc(C#Cc2cnc(N3CCC(N)CC3)nc2-c2ccc(C#N)c(F)c2)cn1` [Example 102, 4-[2-(4-aminopiperidin-1-yl)-5-[2-(1-methylpyrazol-4-yl)ethynyl]pyrimidin-4-yl]-2-fluorobenzonitrile], the IC50 in the assay on THP-1 (AML) cells and at full-length human LSD1 was less than 100 nM in each case.
`CNc1nc(N2CCC(N)CC2)nc(-c2ccc(C#N)cc2)c1-c1cnc2c(c1)nnn2C` [Example 176, 4-[2-(4-aminopiperidin-1-yl)-5-{3-methyl-3H-[1,2,3]triazolo[4,5-b]pyridin-6-yl}-6-(methylamino)pyrimidin-4-yl]benzonitrile]: the IC50 in the assay with THP-1 (AML) cells and at full-length human LSD1 was less than 100 nM in each case.
Turning to `Cn1cc2cc(-c3cnc(N4CCCNCC4)nc3-c3ccc(C#N)c(F)c3)ccc2n1` [Example 110, 4-[2-(1,4-diazepan-1-yl)-5-(2-methylindazol-5-yl)pyrimidin-4-yl]-2-fluorobenzonitrile], the IC50 in the assay with THP-1 (AML) cells and at full-length human LSD1 was less than 100 nM throughout.
With `N#Cc1ccc(-c2nc(N3CCC(N)CC3)ncc2-c2ccc3c(c2)ncn3C(F)F)cc1` [Example 79, 4-[2-(4-aminopiperidin-1-yl)-5-[1-(difluoromethyl)benzimidazol-5-yl]pyrimidin-4-yl]benzonitrile], the half-maximal inhibitory concentration (IC50) with THP-1 (AML) cells and at full-length human LSD1 was less than 100 nM each time.
`Cn1cc2cc(-c3cnc(N4CCC(N)C4)nc3-c3ccc(C#N)c(F)c3)ccc2n1` (centres unmarked) [Example 143, 4-[2-(3-aminopyrrolidin-1-yl)-5-(2-methylindazol-5-yl)pyrimidin-4-yl]-2-fluorobenzonitrile]: the IC50 in the assay with THP-1 (AML) cells and on full-length human LSD1 was less than 100 nM each time.
As to `N#Cc1ccc(-c2nc(N3CCC4NCCC4C3)ncc2-c2cnn(CC(F)(F)F)c2)cc1` (centres unmarked) [Example 63, 4-[2-{1,2,3,3a,4,6,7,7a-octahydropyrrolo[3,2-c]pyridin-5-yl)-5-[1-(2,2,2-trifluoroethyl)pyrazol-4-yl]pyrimidin-4-yl]benzonitrile], the IC50 in the assay on THP-1 (AML) cells was 100 to 1000 nM; at full-length human LSD1, less than 100 nM.
For `Cc1nc2cc(-c3cnc(N4CCC(N)CC4)nc3-c3ccc(C#N)c(F)c3)ccc2n1C` [Example 138, 4-[2-(4-aminopiperidin-1-yl)-5-(1,2-dimethylbenzimidazol-5-yl)pyrimidin-4-yl]-2-fluorobenzonitrile], the concentration for half-maximal inhibition (IC50) in the assay with THP-1 (AML) cells and on full-length human LSD1 was less than 100 nM in each case.
On to `CNc1nc(N2CC[C@@H](N)[C@@H](F)C2)nc(-c2ccc(C#N)cc2)c1-c1ccc2nn(C)cc2c1` [Example 177, 4-{2-[(3S,4R)-4-amino-3-fluoropiperidin-1-yl]-5-(2-methyl-2H-indazol-5-yl)-6-(methylamino)pyrimidin-4-yl}benzonitrile], for which the 50% inhibitory concentration (IC50) in the assay on THP-1 (AML) cells and at full-length human LSD1 was less than 100 nM throughout.
In the case of `Cn1nnc2cc(-c3cnc(N4CCC(N)CC4)nc3-c3ccc(C#N)cc3)ccc21` [Example 72, 4-[2-(4-aminopiperidin-1-yl)-5-(1-methylbenzotriazol-5-yl)pyrimidin-4-yl]benzonitrile], the IC50 in the assay with THP-1 (AML) cells and at full-length human LSD1 was less than 100 nM each time.
On to `Cn1ncc2cc(-c3cnc(N4CCC(N)C(O)C4)nc3-c3ccc(C#N)c(F)c3)ccc21` (centres unmarked) [Example 101, 4-[2-(4-amino-3-hydroxypiperidin-1-yl)-5-(1-methylindazol-5-yl)pyrimidin-4-yl]-2-fluorobenzonitrile], for which the IC50 with THP-1 (AML) cells and on full-length human LSD1 was less than 100 nM throughout.
`Cn1ncc2cc(-c3cnc(N4CCC5CNCC5C4)nc3-c3ccc(C#N)cc3)ccc21` (centres unmarked) [Example 115, 4-[2-(1,2,3,3a,4,6,7,7a-octahydropyrrolo[3,4-c]pyridin-5-yl)-5-(1-methylindazol-5-yl)pyrimidin-4-yl]benzonitrile]: the IC50 in the assay on THP-1 (AML) cells and on full-length human LSD1 was less than 100 nM in each case.
In the case of `N#Cc1ccc(-c2nc(N3CCC(N)CC3)ncc2-c2cnn(C3CCOC3)c2)cc1` (centres unmarked) [Example 71, 4-[2-(4-aminopiperidin-1-yl)-5-[1-(oxolan-3-yl)pyrazol-4-yl]pyrimidin-4-yl]benzonitrile], the results for the IC50 in the assay with THP-1 (AML) cells and on full-length human LSD1 were 100 to 1000 nM and less than 100 nM, respectively.
Consider `N#Cc1ccc(-c2nc(NC[C@H]3CCNC3)ncc2C#CC2CC2)cc1` [Example 26, 4-[5-(2-cyclopropylethynyl)-2-{[(3S)-pyrrolidin-3-ylmethyl]amino}pyrimidin-4-yl]benzonitrile], for which the values for the IC50 with THP-1 (AML) cells and on full-length human LSD1 were 100 to 1000 nM and less than 100 nM, respectively.
Taken in the same sequence, the figures for `COc1ccc(-c2nc3ccn(C[C@@H]4CCNC4)c3cc2-c2ccc(C#N)cc2)cc1F` [Example 50, 4-{1-[((3R)pyrrolidin-3-yl)methyl]-5-(3-fluoro-4-methoxyphenyl)pyrrolo[3,2-b]pyridin-6-yl}benzenecarbonitrile, HCl salt] were less than 100 nM and less than 100 nM.
Take `Cn1cc2cc(-c3cnc(N4CCCC(N)C4)nc3-c3ccc(C#N)c(F)c3)ccc2n1` (centres unmarked) [Example 108, 4-[2-(3-aminopiperidin-1-yl)-5-(2-methylindazol-5-yl)pyrimidin-4-yl]-2-fluorobenzonitrile]: the 50% inhibitory concentration (IC50) with THP-1 (AML) cells and on full-length human LSD1 was less than 100 nM throughout.
With `N#Cc1ccc(-n2nc(C(=O)N3CCC[C@@H](N)C3)cc2OCc2ccncc2)cc1` [Example 58, 4-{3-[((3R)-3-aminopiperidyl)carbonyl]-5-(4-pyridylmethoxy)pyrazolyl}benzenecarbonitrile], the figures for the IC50 with THP-1 (AML) cells and at full-length human LSD1 were 1000 to 10000 nM and less than 100 nM, respectively.
On the same counts, the results for `N#Cc1ccc(-c2nc(N3CCC4CNCC4CC3)ncc2-c2ccc3cn[nH]c3c2)cc1` (centres unmarked) [Example 117, 4-[2-(2,3,3a,4,5,7,8,8a-octahydro-1H-pyrrolo[3,4-d]azepin-6-yl)-5-(1H-indazol-6-yl)pyrimidin-4-yl]benzonitrile] are less than 100 nM and less than 100 nM.
On the same counts, the results for `N#Cc1ccc(-c2nc(N3CCC(N)CC3)ncc2C#CC2(O)CCOCC2)cc1F` [Example 97, 4-[2-(4-aminopiperidin-1-yl)-5-[2-(4-hydroxyoxan-4-yl)ethynyl]pyrimidin-4-yl]-2-fluorobenzonitrile] are 100 to 1000 nM and less than 100 nM.
Taken in the same sequence, the figures for `COc1ccc(-c2nc3ccn(C[C@H]4CCNC4)c3cc2-c2ccc(C#N)cc2)cc1F` [Example 51, 4-{1-[((3S)pyrrolidin-3-y])methyl]-5-(3-fluoro-4-methoxyphenyl)pyrrolo[3,2-b]pyridin-6-yl}benzenecarbonitrile, HCl salt] were less than 100 nM and less than 100 nM.
As for `N#Cc1ccc(-n2nc(C(=O)N3CCC[C@@H](N)C3)cc2OCc2cccnc2)cc1` [Example 57, 4-{3-[((3R)-3-Aminopiperidyl)carbonyl]-5-(3-pyridylmethoxy)pyrazolyl}benzenecarbonitrile], the figures for the IC50 in the assay with THP-1 (AML) cells and on full-length human LSD1 were 100 to 1000 nM and less than 100 nM, respectively.
Taken in the same sequence, the figures for `CNc1nc(N2CCC(N)CC2)nc(-c2ccc(C#N)cc2)c1-c1ccc2c(cnn2C)c1` [Example 164, 4-[2-(4-aminopiperidin-1-yl)-5-(1-methyl-1H-indazol-5-yl)-6-(methylamino)pyrimidin-4-yl]benzonitrile] were less than 100 nM and less than 100 nM.
